# Experimental data taken from patent US7417156B2, “Orally active, antimalarial, anticancer, artemisinin-derived trioxane dimers” (Johns Hopkins University, priority 2002, dated 2008).
# Read-outs that look alike come from different tables or passages of the source.
# Tests used:
# [1] = test system: chloroquine-sensitive P. falciparum (NF54); test: Antimalarial activity in vitro, [3H]hypoxanthine incorporation; format: cell-based
# 60 cell line panel = format: cell-based
# CCRF-CEM = test: NCI 60 cell line panel screen (SRB); format: cell-based, human
# HL-60(TB) = test: NCI 60 cell line panel screen (SRB); format: cell-based, human
# K-562 = test: NCI 60 cell line panel screen (SRB); format: cell-based, human
# RPMI-8226 = test: NCI 60 cell line panel screen (SRB); format: cell-based, human; conditions: RPMI-8226 (Leukemia)
# HOP-92 = test: NCI 60 cell line panel screen (SRB); format: cell-based, human
# NCI-H23 = test: NCI 60 cell line panel screen (SRB); format: cell-based, human
# NCI-H460 = test: NCI 60 cell line panel screen (SRB); format: cell-based, human
# COLO 205 = test: NCI 60 cell line panel screen (SRB); format: cell-based, human
# HCT-116 = test: NCI 60 cell line panel screen (SRB); format: cell-based, human
# HCT-15 = test: NCI 60 cell line panel screen (SRB); format: cell-based, human
# KM12 = test: NCI 60 cell line panel screen (SRB); format: cell-based, human
# SF-268 = test: NCI 60 cell line panel screen (SRB); format: cell-based, human
# SNB-75 = test: NCI 60 cell line panel screen (SRB); format: cell-based, human
# U251 = test: NCI 60 cell line panel screen (SRB); format: cell-based, human
# MALME-3M = test: NCI 60 cell line panel screen (SRB); format: cell-based, human; conditions: MALME-3M (Melanoma)
# M14 = test: NCI 60 cell line panel screen (SRB); format: cell-based, human
# SK-MEL-2 = test: NCI 60 cell line panel screen (SRB); format: cell-based, human
# SK-MEL-28 = test: NCI 60 cell line panel screen (SRB); format: cell-based, human
# OVCAR-3 = test: NCI 60 cell line panel screen (SRB); format: cell-based, human
# OVCAR-8 = test: NCI 60 cell line panel screen (SRB); format: cell-based, human
# CAKI-1 = test: NCI 60 cell line panel screen (SRB); format: cell-based, human
# RXF 393 = test: NCI 60 cell line panel screen (SRB); format: cell-based, human
# PC-3 = test: NCI 60 cell line panel screen (SRB); format: cell-based, human
# MCF7 = test: NCI 60 cell line panel screen (SRB); format: cell-based, human
# NCI/ADR-RES = test: NCI 60 cell line panel screen (SRB); format: cell-based, human
# [2] = mean value over the 60 cell line panel
compound,measurement,setting,value
"CC1CCC2C(C)C(CC(O)(CO)CC3OC4OC5(C)CCC6C(C)CCC(C3C)C46OO5)OC3OC4(C)CCC1C32OO4 (stereo not shown) [Compound 5, bis-trioxane vicinal diol]",IC50,[1],below one nM
same,antimalarial potency in vitro relative to artemisinin,[1],10 times
same,IC50,"[1]; Table I, NF54 strain, read-out: IC50",0.59 nM
same,Log10GI50 Delta,60 cell line panel,2.03
same,Log10GI50 Range,60 cell line panel,3.47
same,Log10LC50 Delta,60 cell line panel; 60 cell line panel,0.37
same,Log10LC50 Range,60 cell line panel; 60 cell line panel,0.47
same,Log10TGI50 Delta,60 cell line panel; 60 cell line panel,3.50
same,Log10TGI50 Range,60 cell line panel; 60 cell line panel,4.00
same,growth inhibition and cytotoxicity in words,60 cell line panel; human cancer cell lines in general,strongly inhibitory but not cytotoxic
same,growth inhibition in words,"60 cell line panel; leukemia cell line RPM 1-8226, melanoma cell line SK-MEL-5, renal cancer cell line ACHN",selectively and strongly inhibitory
same,Log10GI50 MG MID,60 cell line panel; mean over panel,−5.97
same,Log10LC50 MG MID,60 cell line panel; [2],−4.09 log10M
same,Log10TGI50 MG MID,60 cell line panel; [2],−4.50 log10M
same,Log10LC50,"CCRF-CEM; CCRF-CEM (Leukemia), LC50: PG=−50",>−4.00 log10M
same,Log10TGI50,"CCRF-CEM; CCRF-CEM (Leukemia), TGI: PG=0",>−4.00 log10M
same,Log10GI50,"CCRF-CEM; Leukemia, CCRF-CEM",−4.71
same,Log10LC50,"HL-60(TB); HL-60(TB) (Leukemia), LC50: PG=−50",>−4.00 log10M
same,Log10GI50,"HL-60(TB); Leukemia, HL-60(TB)",<−8.00
same,Log10LC50,"K-562; K-562 (Leukemia), LC50: PG=−50",>−4.00 log10M
same,Log10TGI50,"K-562; K-562 (Leukemia), TGI: PG=0",>−4.00 log10M
same,Log10GI50,"K-562; Leukemia, K-562",<−8.00
same,Log10LC50,RPMI-8226; LC50: PG=−50,>−4.00 log10M
same,Log10TGI50,RPMI-8226; TGI: PG=0,>−4.00 log10M
same,Log10LC50,"HOP-92; HOP-92 (Non-Small Cell Lung Cancer), LC50: PG=−50",−4.05 log10M
same,Log10TGI50,"HOP-92; HOP-92 (Non-Small Cell Lung Cancer), TGI: PG=0",−4.49 log10M
same,Log10GI50,"HOP-92; Non-Small Cell Lung Cancer, HOP-92",−4.93
same,Log10LC50,"NCI-H23; NCI-H23 (Non-Small Cell Lung Cancer), LC50: PG=−50",>−4.00 log10M
same,Log10TGI50,"NCI-H23; NCI-H23 (Non-Small Cell Lung Cancer), TGI: PG=0",−4.26 log10M
same,Log10GI50,"NCI-H23; Non-Small Cell Lung Cancer, NCI-H23",−4.83
same,Log10LC50,"NCI-H460; NCI-H460 (Non-Small Cell Lung Cancer), LC50: PG=−50",>−4.00 log10M
same,Log10TGI50,"NCI-H460; NCI-H460 (Non-Small Cell Lung Cancer), TGI: PG=0",−4.40 log10M
same,Log10GI50,"NCI-H460; Non-Small Cell Lung Cancer, NCI-H460",−5.02
same,Log10LC50,"COLO 205; COLO 205 (Colon Cancer), LC50: PG=−50",−4.15 log10M
same,Log10TGI50,"COLO 205; COLO 205 (Colon Cancer), TGI: PG=0",−4.87 log10M
same,Log10GI50,"COLO 205; Colon Cancer, COLO 205",<−8.00
same,Log10GI50,"HCT-116; Colon Cancer, HCT-116",−4.72
same,Log10LC50,"HCT-116; HCT-116 (Colon Cancer), LC50: PG=−50",>−4.00 log10M
same,Log10TGI50,"HCT-116; HCT-116 (Colon Cancer), TGI: PG=0",>−4.00 log10M
same,Log10GI50,"HCT-15; Colon Cancer, HCT-15",−5.28
same,Log10LC50,"HCT-15; HCT-15 (Colon Cancer), LC50: PG=−50",−4.03 log10M
same,Log10TGI50,"HCT-15; HCT-15 (Colon Cancer), TGI: PG=0",−4.53 log10M
same,Log10GI50,"KM12; Colon Cancer, KM12",<−8.00
same,Log10LC50,"KM12; KM12 (Colon Cancer), LC50: PG=−50",>−4.00 log10M
same,Log10TGI50,"KM12; KM12 (Colon Cancer), TGI: PG=0",−4.47 log10M
same,Log10GI50,"SF-268; CNS Cancer, SF-268",−4.94
same,Log10LC50,"SF-268; SF-268 (CNS Cancer), LC50: PG=−50",−4.12 log10M
same,Log10TGI50,"SF-268; SF-268 (CNS Cancer), TGI: PG=0",−4.53 log10M
same,Log10GI50,"SNB-75; CNS Cancer, SNB-75",−4.53
same,Log10LC50,"SNB-75; SNB-75 (CNS Cancer), LC50: PG=−50",>−4.00 log10M
same,Log10TGI50,"SNB-75; SNB-75 (CNS Cancer), TGI: PG=0",−4.04 log10M
same,Log10GI50,"U251; CNS Cancer, U251",−7.68
same,Log10LC50,"U251; U251 (CNS Cancer), LC50: PG=−50",−4.08 log10M
same,Log10TGI50,"U251; U251 (CNS Cancer), TGI: PG=0",−4.61 log10M
same,Log10LC50,MALME-3M; LC50: PG=−50,−4.11 log10M
same,Log10TGI50,MALME-3M; TGI: PG=0,−4.50 log10M
same,Log10LC50,"M14; M14 (Melanoma), LC50: PG=−50",>−4.00 log10M
same,Log10TGI50,"M14; M-14 (Melanoma), TGI: PG=0",>−4.00 log10M
same,Log10GI50,"M14; Melanoma, M14",−4.59
same,Log10GI50,"SK-MEL-2; Melanoma, SK-MEL-2",−4.94
same,Log10LC50,"SK-MEL-2; SK-MEL2 (Melanoma), LC50: PG=−50",−4.12 log10M
same,Log10TGI50,"SK-MEL-2; SK-MEL-2 (Melanoma), TGI: PG=0",−4.53 log10M
same,Log10GI50,"SK-MEL-28; Melanoma, SK-MEL-28",−4.79
same,Log10LC50,"SK-MEL-28; SK-MEL-28 (Melanoma), LC50: PG=−50",>−4.00 log10M
same,Log10TGI50,"SK-MEL-28; SK-MEL-28 (Melanoma), TGI: PG=0",−4.31 log10M
same,Log10LC50,"OVCAR-3; OVCAR-3 (Ovarian Cancer), LC50: PG=−50",>−4.00 log10M
same,Log10TGI50,"OVCAR-3; OVCAR-3 (Ovarian Cancer), TGI: PG=0",−4.45 log10M
same,Log10GI50,"OVCAR-3; Ovarian Cancer, OVCAR-3",−5.09
same,Log10LC50,"OVCAR-8; OVCAR-8 (Ovarian Cancer), LC50: PG=−50",>−4.00 log10M
same,Log10TGI50,"OVCAR-8; OVCAR-8 (Ovarian Cancer), TGI: PG=0",−4.47 log10M
same,Log10GI50,"OVCAR-8; Ovarian Cancer, OVCAR-8",<−8.00
same,Log10LC50,"CAKI-1; CAKI-1 (Renal Cancer), LC50: PG=−50",−4.13 log10M
same,Log10TGI50,"CAKI-1; CAKI-1 (Renal Cancer), TGI: PG=0",−4.54 log10M
same,Log10GI50,"CAKI-1; Renal Cancer, CAKI-1",−4.94
same,Log10LC50,"RXF 393; RXF 393 (Renal Cancer), LC50: PG=−50",−4.18 log10M
same,Log10TGI50,"RXF 393; RXF 393 (Renal Cancer), TGI: PG=0",−4.53 log10M
same,Log10GI50,"RXF 393; Renal Cancer, RXF 393",−4.89
same,Log10LC50,"PC-3; PC-3 (Prostate Cancer), LC50: PG=−50",>−4.00 log10M
same,Log10TGI50,"PC-3; PC-3 (Prostate Cancer), TGI: PG=0",−4.49 log10M
same,Log10GI50,"PC-3; Prostate Cancer, PC-3",<−8.00
same,Log10GI50,"MCF7; Breast Cancer, MCF7",<−8.00
same,Log10LC50,"MCF7; MCF7 (Breast Cancer), LC50: PG=−50",−4.22 log10M
same,Log10TGI50,"MCF7; MCF7 (Breast Cancer), TGI: PG=0",−4.88 log10M
same,Log10GI50,"NCI/ADR-RES; Breast Cancer, NCI/ADR-RES",−4.75
same,Log10LC50,"NCI/ADR-RES; NCI/ADR-RES (Breast Cancer), LC50: PG=−50",>−4.00 log10M
